From paper PMC3155955 (Bioorganic & medicinal chemistry letters, 2011) come the findings set out here.

The subject of assay [1] is HCT-116 human colon cancer cells. Kind of assay: MTS cytotoxicity assay, HCT-116. In kind it is cell-based.
In assay [2] the test system is CCD-18Co normal colon fibroblasts. Kind of assay: MTS cytotoxicity assay, CCD-18Co. In kind it is cell-based, human. Conditions: colon cancer cells (HCT-116, Caco-2) vs CCD-18Co. In general terms: Tetrazolium assays rely on reduction of a dye to a coloured formazan, in cell work by metabolically active cells.
In assay [3] the test system is Caco-2 human colon cancer cells. Kind of assay: MTS cytotoxicity assay, Caco-2. The settings on record: Caco-2, read-out: IC50 (consistent values of the control). In kind it is cell-based.

Each structure is given as a SMILES string.

On to `COc1cc2c3c(c1O)-c1cc4c(cc1C[C@@H]3N(C)CC2)OCO4` [Compound 1, domesticine], for which the “fold less potent than the benchmark etoposide” value in assay [1] (HCT-116 cell line) was “approximately 3 fold”.

For the molecule `CCC(CC)COc1c(OC)cc2c3c1-c1cc4c(cc1C[C@@H]3N(C)CC2)OCO4` [Compound 3], the “selectivity for colon cancer cells vs normal colon fibroblasts (CCD-18Co)” value in assay [2] is listed as “approximately 2 fold”.

As to `COc1cc([C@@H]2c3cc4c(cc3[C@@H](O[C@@H]3O[C@@H]5CO[C@@H](C)O[C@H]5[C@H](O)[C@H]3O)[C@H]3COC(=O)[C@H]23)OCO4)cc(OC)c1O` [etoposide], the 50% inhibitory concentration (IC50) (commonly the concentration at which inhibition is half-maximal) was 15 to 25 µM in assay [1] (Homo sapiens, HCT-116, read-out: IC50 (consistent values of the control)) and 15 to 25 µM in assay [3].
